Here are results for 6 molecules from US7534426B2, “Glutenase enzyme assays” (The Board of Trustees of the Leland Stanford Junior …, priority 2004, dated 2009).

Like-named read-outs stand apart in the source and are kept apart here. Ends that are not written are not given here.

The nature of data set [1]: In vitro digestion of gliadin peptides with gastric and pancreatic enzymes (PTCtCE). The data set is classed as in vitro ADME. The note with it: pH 7.04. The method, then: (§1) In vitro Digestion of Gliadin Peptides. The in vitro digestion of each peptide was performed as follows: 75 μM (final concentration) of peptide was combined with 32 μL of 0.03 M HCl, pepsin (1:100 w pepsin/w peptide) and water to give a volume of 104 μL. The reaction was carried out for 30 minutes at 37° C. and was stopped by the addition of 40 μL of 1M sodium phosphate/sodium bisphosphate (pH 7.04). Chymotrypsin (1:100 w/w), trypsin (1:100.7 w/w), elastase (1:200 w/w), and carboxypeptidase A (1:100 w/w) were then added to give a final reaction volume of 168 μL. The reaction mixture was incubated at 37° C. for the indicated time and then stopped by heating at 90° C. for 5 minutes. Alternatively, the peptide ([…]) was combined with rat intestinal brush border enzymes, where the final concentration of brush border aminopeptidase N was 100 μU/μL. The rat intestinal brush border was prepared as described (Ahnen et al., 1982) and the activity was measured by assaying continuously at 30° C. in 0.1 M Tris HCl, pH 8.0, containing 1 mM Leu-pNA [extinction coefficient at 410 nm (ε410)=8,800 M^−1/cm^−1] in 1% dimethyl sulfoxide to improve solubility. In some reactions prolyl endopeptidase was also added at a final concentration of 100 μU/μL. The reaction mixture was analyzed by reverse phase HPLC on a Vydac 218MS54 column (4.6 mm inner diameter×15 cm).
(§2) Digestive resistance of gliadin peptides and effect of PEP. The gliadin peptides P2-P8 (Table 1) were incubated with pepsin, trypsin, chymotrypsin, carboxypeptidase A, and elastase (PTCtCE) and purified rat intestinal brush border membranes (BBM) as previously detailed (Shan et al., 2002) to assess their resistance to digestion. […] Peptides P2, P3, P5 contain one or more epitopes from α-gliadin, whereas P7 and P8 carry γ-gliadin epitopes. P4 is believed to stimulate the innate immune system, and P6 has macrophage stimulating activity.

Data set [2] can be described thus: In vitro digestion with brush border membranes supplemented with PEP. Type of data set: in vitro ADME. The note with it: rat, kidney or brush border membranes, BBM plus 100 μU/μL PEP, 37° C. The method, then: as §1, with “The rat intestinal brush border was prepared as described (Ahnen et al., 1982) and the activity was measured by assaying continuously at 30° C. in 0.1 M Tris HCl, pH 8.0, containing 1 mM Leu-pNA [extinction coefficient at 410 nm (ε410)=8,800 M^−1/cm^−1] in 1% dimethyl sulfoxide to improve solubility. In some reactions prolyl endopeptidase was also added at a final concentration of 100 μU/μL.” left out
Given the stability of gliadin peptides to intestinal peptidases and initial results indicating PEP is active against α-gliadin epitopes, the efficacy of in vitro digestion with PEP was examined. To quantify the incremental effect of PEP, we incubated the gliadin peptides with purified brush border membranes, supplemented with 100 μU/μL of PEP for 1 or 4 hours at 37° C.

A short description of data set [3]: In vitro digestion of gliadin peptides with brush border membranes. Type of data set: in vitro ADME, rat. The method, then:
as §1, §2

Data set [4] relates to intact rat intestine co-perfused with prolyl endopeptidase (PEP). The data set is classed as in vivo, Sprague-Dawley rats. As to conditions: co-perfused with 50 μM P5; ~190 μU/μL; ca. 1:5 weight ratio PEP:P5. An excerpt:
In vivo Rat Intestinal Perfusion. Our procedure for in vivo intestinal perfusion of peptides in rats was modified from the Smithson and Gray procedure as follows: Sprague-Dawley rats, 250-350 g were anesthetized with isoflurane, the abdomen opened, the ligament of Treitz (duodenal-jejunal junction) identified and polyethylene catheters [2.5 mm outer diameter×1 mm inner diameter] were installed with the proximal infusion catheter placed 5 cm beyond the ligament of Treitz and the collection catheter positioned 20 cm distally. Animal core temperature was monitored to be at 37° C. by rectal thermometer. Peptides for intra-intestinal perfusion were 1 mM GLGG, 0.1 mM P3, 0.1 mM P4, 0.1 mM P5, 0.1 mM P8, 0.1 mM P9, and 0.1 mM P10. […]
In a separate experiment, pepsin, trypsin and chymotrypsin digested gliadin (Sigma, St. Louis, Mo.) was perfused at 2 mg/mL along with 0.05 mM P5 and 41.7 […] PEP (˜190 μU/μL) to determine the effect of smaller, more accessible peptide fragments on P5 digestion. The perfusion effluent was collected, immediately frozen and subsequently analyzed by reverse phase HPLC on a Vydac 218MS54 column (4.6 mm inner diameter×15 cm). The rate of substrate disappearance for the peptides was calculated as previously detailed (Smithson and Gray, 1977). […]

A word on the share remaining: it is the share of the starting amount still present when the sample was taken. In the case of FLQPQQPFPQQPQQPYPQQPQQPFPQ [Peptide P8], the metabolised at 4 h, 75 µM in data set [1] (75 μM peptide, 37° C., 4 hr, NR = no reaction, read-out: percentage of parent material digested, PTCtCE 4 hr) was 13%; in data set [2] (4 hr, read-out: percentage of parent material digested, BBM + PEP 4 hr), above 99%; in data set [3] (rat, kidney or brush border membranes, 75 μM peptide, aminopeptidase N 100 μU/μL, 4 hr, read-out: percentage of parent material digested, BBM 4 hr), 19%. The metabolised at 1 h, 75 µM in data set [2] (1 hr, read-out: percentage of parent material digested, BBM + PEP 1 hr) was above 99%. Also, the amount remaining at 4 h, 75 µM in data set [3] (rat, kidney or brush border membranes, 4 hours, read-out: starting material remaining after BBM exposure) was around 70%.
For the molecule “LGQQQPFPPQQPYPQPQPF [Peptide P4, LGQQQPFPPQQPYPQPQPF]”, in data set [3], the metabolised at 1 h, 75 µM came out at 77% and the metabolised at 4 h, 75 µM was 98%.
As for “LQLQPFPQPQLPYPQPQLPYPQPQLPYPQPQPF [Peptide P5]”, the metabolised at 4 h, 75 µM in data set [1] was 10%. In data set [3], the metabolised at 1 h, 75 µM was 20% and the metabolised at 4 h, 75 µM stood at 28%. Further, in data set [3] (rat, kidney or brush border membranes), the amount remaining at 4 h, 75 µM is around 70%.
In the case of QLQPFPQPQLPY [Peptide P2, QLQPFPQPQLPY], in data set [1], the metabolised at 4 h, 75 µM was determined as 1%. Moreover, in data set [3], the metabolised at 1 h, 75 µM worked out at 71% and the metabolised at 4 h, 75 µM stood at 94%.
For “VSFQQPQQQYPSSQ [Peptide P6, VSFQQPQQQYPSSQ]”, in that order: 48%, 97% and 99%.

B1: PEP: Flavobacterium meningosepticum prolyl endopeptidase, purchased or prepared from recombinant E. coli (protein, UniProt P27028 21-705, looked up)
Prolyl endopeptidase: QNSNVLKYPETKKVSHTDTYFGTQVSDPYRWLEDDRAEDTKAWVQQEVKFTQDYLAQIPFRDQLKKQLMDIWNYEKISAPFKKGKYTYFSKNDGLQAQSVLYRKDAAGKTEVFLDPNKFSEKGTTSLASVSFNKKGTLVAYSISEGGSDWNKIIILDAETKKQLDETLLDVKFSGISWLGDEGFFYSSYDKPKEGSVLSGMTDKHKVYFHKLGTKQSQDELIIGGDKFPRRYIGAYVTDDQRYLVVSAANATNGNELYIKDLKNKTDFIPIITGFDSNVNVADTDGDTLYLFTDKDAPNKRLVKTTIQNPKAETWKDVIAETSEPLEINTGGGYFFATYMKDAIDQVKQYDKNGKLVRAIKLPGSGNASGFGGEKTEKDLYYSFTNYITPPTIFKYNVTTGNSEVYQKPKVKFNPENYVSEQVFYTSSDGTKIPMMISYKKGLKKDGKNPTILYSYGGFNISLQPAFSVVNAIWMENGGIYAVPNIRGGGEYGKKWHDAGTKMQKKNVFNDFIAAGEYLQKNGYTSKEYMALSGRSNGGLLVGATMTMRPDLAKVAFPGVGVLDMLRYNKFTAGAGWAYDYGTAEDSKEMFEYLKSYSPVHNVKAGTCYPSTMVITSDHDDRVVPAHSFKFGSELQAKQSCKNPILIRIETNAGHGAGRSTEQVVAENADLLSFALYEMGIKSLK
With B1, the “amount of PEP required to eliminate P5 under the perfusion conditions” value in data set [4] was found to be 41.7 µg/mL.
